Experimental data as given in patent US7531663B2, “3-guanidinocarbonyl-1-heteroaryl-indole derivatives, preparation process, their use as medicaments, and pharmaceutical compositions comprising them” (sanofi-aventis Deutschland GmbH, priority 2003, dated 2009).
Counter-ions that a name gives are not always drawn.

How the values were obtained:
NHE1 = biological target: T1, NHE1 (Homo sapiens, UniProt P19634); experiment: NHE inhibition FLIPR test (intracellular pH recovery, BCECF) in transfected LAP-1 cell lines; type: cell-based; conditions: transfected LAP-1 cell line expressing NHE1 subtype, BCECF fluorescence, pHi recovery after acidification
T1 construct: expressed in transfected cells; host or cells: LAP-1 (parental line without endogenous NHE activity), G418-selected transfectants
Protocol: The NHE inhibitory activities (IC50 values) of the compounds according to the invention were determined by a FLIPR test.
The test is performed in the FLIPR (Fluorescent Imaging Plate Reader) equipped with clear-bottomed and black-walled 96-well microtitration plates.
The growth medium for the transfected cells (Iscove+10% foetal calf serum) also comprises G418 as selection antibiotic to ensure the presence of transfected sequences.
The actual test begins by eliminating the growth medium and adding 100 μl of loading buffer per well (5 μM of BCECF-AM [2′,7′-bis(2-carboxyethyl)-5-(6)-carboxyfluoresceine acetoxymethyl ester] in 20 mM of NH4Cl 115 mM of choline chloride, 1 mM of CaCl2, 5 mM of KCl, 20 mM of HEPES and 5 mM of glucose; pH 7.4 (adjusted with KOH). The cells are then incubated for 20 minutes at 37° C. This incubation results in the loading of the fluorescent dye into the cells, the fluorescence intensity of which depends on the pHi, and on the NH4Cl, which results in a slight basification of the cells.
The precursor BCECF-AM, a non-fluorescent dye, is, as an ester, capable of crossing the membrane. The actual dye, which is incapable of crossing the membrane, is released inside the cell by esterases.
After this 20-minute incubation, the loading buffer, which comprises NH4Cl and free BCECF-AM, is removed by washing three times in the cell washing device (Tecan Columbus), each wash being performed with 400 μl of washing buffer (133.8 mM of choline chloride, 4.7 mM of KCl, 1.25 mM of MgCl2, 1.25 mM of CaCl2, 0.97 mM of K2HPO4, 0.23 mM of KH2PO4, 5 mM of HEPES and 5 mM of glucose; pH 7.4 (adjusted with KOH)). The residual volume remaining in the wells is 90 μl (possibly between 50 and 125 μl). This washing step removes the free BCECF-AM and results in an intracellular acidification (pHi of 6.3-6.4) due to the removal of the external ammonium ions.
As the equilibrium of the intracellular ammonium with the aqueous ammonia and the protons, by removal of the extracellular ammonium and by the subsequent immediate crossing of the aqueous ammonia across the cell membrane, is disrupted, the washing process results in intracellular protons remaining, which is the cause of the intracellular acidification. This acidification can result finally in the death of the cells if it lasts long enough. It is important here for the washing buffer to be free of sodium (<1 mM), otherwise the extracellular sodium ions would result in an immediate increase in the pHi on account of the activity of the cloned NHE isoforms. It is also important for all the buffers used (loading buffer, washing buffer and regeneration buffer) not to contain any HCO3-ions, otherwise the presence of bicarbonate would result in the activation of bicarbonate-dependent systems that disrupt the pHi regulation, which systems are contained in the LAP-1 parental cell line.
The microtiter plates containing acidified cells are then transferred (up to 20 minutes after the acidification) to the FLIPR. In the FLIPR, the intracellular fluorescent dye is activated with light of a wavelength of 488 nm, which is generated by an argon laser, and the measuring parameters (laser power, illumination time and diaphragm of the […] camera integrated into the FLIPR) are chosen such that the average value of the fluorescent signal per well is between 30,000 and 35,000 relative fluorescence units.
The actual measurement in the FLIPR starts with a photograph being taken by the CCD camera every two seconds under software control. After 10 seconds, the increase in the intracellular pH is initiated by adding 90 μl of regeneration buffer (133.8 mM of NaCl, 4.7 mM of KCl, 1.25 mM of MgCl2, 1.25 mM of CaCl2, 0.97 mM of K2HPO4, 0.23 mM of KH2PO4, 10 mM of HEPES and 5 mM of glucose; pH 7.4 (adjusted with NaOH)) using a 96-well pipette device incorporated into the FLIPR. Some wells, to which is added pure regeneration buffer, serve as positive controls (100% NHE activity). […]

T1 sequence (P19634 whole entry): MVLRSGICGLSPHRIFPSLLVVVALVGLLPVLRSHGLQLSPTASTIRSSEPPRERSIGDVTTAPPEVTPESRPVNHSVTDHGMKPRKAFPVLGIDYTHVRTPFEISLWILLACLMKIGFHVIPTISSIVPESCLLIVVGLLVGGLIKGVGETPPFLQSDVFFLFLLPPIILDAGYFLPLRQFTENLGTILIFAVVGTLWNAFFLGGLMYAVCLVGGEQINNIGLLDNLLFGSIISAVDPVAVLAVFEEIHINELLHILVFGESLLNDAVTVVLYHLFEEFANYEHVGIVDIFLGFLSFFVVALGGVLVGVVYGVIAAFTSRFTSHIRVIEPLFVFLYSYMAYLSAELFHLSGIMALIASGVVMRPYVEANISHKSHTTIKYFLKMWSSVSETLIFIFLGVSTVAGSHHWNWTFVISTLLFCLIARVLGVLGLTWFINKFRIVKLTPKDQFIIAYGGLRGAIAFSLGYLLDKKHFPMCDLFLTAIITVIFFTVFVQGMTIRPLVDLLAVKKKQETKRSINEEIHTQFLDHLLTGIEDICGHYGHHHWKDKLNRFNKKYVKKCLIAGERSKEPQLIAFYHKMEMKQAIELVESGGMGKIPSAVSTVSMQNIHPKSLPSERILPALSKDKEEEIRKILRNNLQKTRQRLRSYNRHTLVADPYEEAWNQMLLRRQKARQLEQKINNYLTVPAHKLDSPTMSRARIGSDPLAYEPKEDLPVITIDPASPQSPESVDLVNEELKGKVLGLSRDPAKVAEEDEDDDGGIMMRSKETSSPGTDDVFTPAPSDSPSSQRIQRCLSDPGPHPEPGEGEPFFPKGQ

SMILES	IC50 (NHE1)	melting point
Cc1ccc2c(c1)c(C(=O)N=C(N)N)cn2-c1ccnc2ccccc12.Cl [Example 6, 3-Guanidinocarbonyl-5-methyl-1-(quinol-4-yl)-1H-indole hydrochloride]	206 nM	268 °C
N=C(N)NC(=O)c1cn(-c2cccc3cccnc23)c2ccccc12 [Example 9, 3-Guanidinocarbonyl-1-(quinol-8-yl)-1H-indole]	275 nM	172 °C
Cl.NC(N)=NC(=O)c1cn(-c2ccc3ncccc3c2)c2ccccc12 [Example 8, 3-Guanidinocarbonyl-1-(quinol-6-yl)-1H-indole hydrochloride]	143 nM	268 °C
N=C(N)NC(=O)c1cn(-c2cc3ccccc3cn2)c2ccccc12 [Example 10, 3-Guanidinocarbonyl-1-(isoquinol-3-yl)-1H-indole hydrochloride]	1870 nM	
Cc1ccc2c(c1)c(C(=O)N=C(N)N)cn2-c1ccc2ccccc2n1.Cl [Example 5, 3-Guanidinocarbonyl-5-methyl-1-(quinol-2-yl)-1H-indole hydrochloride]	4980 nM	268 °C
Cl.NC(N)=NC(=O)c1cn(-c2ccnc3ccccc23)c2ccccc12 [Example 2, 3-Guanidinocarbonyl-1-(quinol-4-yl)-1H-indole hydrochloride]	4 nM	270 °C
NC(N)=NC(=O)c1cn(-c2ccc3ccccc3n2)c2ccccc12 [Example 3, 3-Guanidinocarbonyl-1-(quinol-2-yl)-1H-indole hydrochloride]	535 nM	
N=C(N)NC(=O)c1cn(-c2ccnc3ccccc23)c2ccc(Cl)cc12 [Example 14, 5-Chloro-3-guanidinocarbonyl-1-(quinolin-4-yl)-1H-indole]	2460 nM	
N=C(N)NC(=O)c1cn(-c2ccnc3ccccc23)c2ccc(F)cc12 [Example 13, 5-Fluoro-3-guanidinocarbonyl-1-(quinol-4-yl)-1H-indole hydrochloride]	39 nM	
NC(N)=NC(=O)c1cn(-c2cnnc3ccccc23)c2ccccc12 [Example 15, N-[1-(Cinnolin-4-yl)-1H-indole-3-carbonyl]-guanidine trifluoroacetate]	1.5 nM	
Cl.NC(N)=NC(=O)c1cn(-c2cnc3ccccc3c2)c2ccccc12 [Example 7, 3-Guanidinocarbonyl-1-(quinol-3-yl)-1H-indole hydrochloride]	433 nM	268 °C
COc1ccc2c(C(=O)NC(=N)N)cn(-c3ccnc4ccccc34)c2c1 [Example 11, 3-Guanidinocarbonyl-6-methoxy-1-(quinol-4-yl)-1H-indole dihydrochloride]	47 nM	
Cl.NC(N)=NC(=O)c1cn(-c2nccc3ccccc23)c2ccccc12 [Example 1, 3-Guanidinocarbonyl-1-(isoquinol-1-yl)-1H-indole hydrochloride]	14 nM	262 °C
N=C(N)NC(=O)c1cn(-c2ccnc3ccccc23)c2cc(F)ccc12 [Example 12, 6-Fluoro-3-guanidinocarbonyl-1-(quinol-4-yl)-1H-indole hydrochloride]	76 nM	
COc1ccc2c(c1)c(C(=O)N=C(N)N)c(C)n2-c1cnnc2ccccc12 [Example 16, N-[1-(Cinnolin-4-yl)-5-methoxy-2-meth-yl-1H-indole-3-carbonyl]-guani-dine trifluoroacetate]	1670 nM	
Cc1ccc2c(c1)c(C(=O)N=C(N)N)cn2-c1nccc2ccccc12.Cl [Example 4, 3-Guanidinocarbonyl-1-(isoquinol-1-yl)-5-methyl-1H-indole hydrochloride]	200 nM	268 °C
